Publication PMC6952399, “Structures of lipoprotein signal peptidase II from Staphylococcus aureus complexed with antibiotics globomycin and myxovirescin” (Nature Communications, 2020)
“And” between values parts separate entries of the source, which are not always exact repeats. Equal values may be shown once.

Biological target: T1, LspPae (lipoprotein signal peptidase II from Pseudomonas aeruginosa) (Pseudomonas aeruginosa, UniProt Q9HVM5)
T1 construct: made in house
T1 sequence (Q9HVM5 1-169): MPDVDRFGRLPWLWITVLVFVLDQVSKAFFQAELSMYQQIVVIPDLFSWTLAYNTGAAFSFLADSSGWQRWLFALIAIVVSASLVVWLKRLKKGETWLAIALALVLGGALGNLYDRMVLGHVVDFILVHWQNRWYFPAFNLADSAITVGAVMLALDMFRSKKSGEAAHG
Assay: FRET lipopeptide peptidase assay, LspPae
Type: biochemical
Conditions: for Fluorescence (RFU): FRET substrate + LspA + Globomycin; for Rate (RFU/min) / Normalised rate (Vi/V0): replicates 1 and 2; for Ki: estimated Ki’ (apparent inhibition constant)
Experimental: FRET activity assays. A FRET based assay was developed using a labelled lipopeptide substrate (Supplementary Methods, Supplementary Fig. 3b) to directly monitor the protease activity of LspA. The optimised LspMrs assay buffer included 100 mM Tris/HCl pH 7.8, 150 mM NaCl and 0.09%(w/v) DDM. The corresponding optimized buffer for LspPae included 100 mM MES/NaOH pH 5.6, 150 mM NaCl and 0.05%(w/v) LMNG. All assays were performed at 37 °C.
Reaction mixtures were prepared by vortexing (Clifton, cyclone CM-1) for 2 s and incubated at 37 °C, 800 rpm for 10 to 30 min. […] For dose-response assays, the final DMSO concentration in all reactions was 10%(v/v). Reaction mixtures were pipetted into wells of a 96- (Thermo Scientific) or a 384-well plate (4titude®) and incubated for 10 min at 37 °C in a SpectraMax M3 or a SpectraMax M5e plate reader (Molecular devices) prior to starting the assay. Assays were initiated by adding enzyme to a final concentration in the range 10–300 nM. Total reaction mixture volume was 50 μL. Reactions were monitored by fluorescence (Ex/Em, 320 nm/420 nm) for 30 to 60 min at 37 °C. Initial rates were calculated from the fluorescence intensity versus time progress curves (Supplementary Figs. 5 and 6). Occasionally, lag periods in the progress curves were observed (Supplementary Discussion). In such cases, initial rates were calculated after the lag period had passed (typically 1–5 min) and a steady rate had been established. Dose-response plots to determine IC50 values were generated using Prism® 5 software from GraphPad.
It was possible to convert units of fluorescence change into moles of substrate consumed or products formed because pure products of LspA action on Abz-LALAGC*SS-nY-NH2 had been synthesized and were available. These were used to create a standard curve of fluorescence versus moles of the two products in equimolar amounts and to calculate specific activity values. […]
One consequence of LspMrs having a relatively low specific activity is that, in order to get a reliable signal in activity assays, it was necessary to raise enzyme concentration. For kinetic measurements generally, it is desirable to use an enzyme concentration that is much lower than that of the substrate. In this situation, the usual assumption that added and free substrate concentrations are equal is valid. At high enzyme concentrations [E] therefore, and especially in the case of tight ligand binding where the inhibition constant, Ki, is small, a measured IC50 is limited to [E]/2 4–6. In such circumstances, a meaningful IC50 or Ki can only be obtained with considerable effort. With a few exceptions in the current study, this situation prevailed with both LspA orthologs where IC50 values came close to [E]/2 (Table 1 and Supplementary Table 3, Supplementary Fig. 6). […]
Inhibition of LspA from E. coli by globomycin has been described as non-competitive7. The evidence provided in support o f this conclusion included an insensitivity of IC 50 to substrate concentration and the fact that the Vmax but not the K m changed with globomycin concentration. It was of interest to determine if a similar mode of inhibition applied to LspPae and LspMrs. From published work7–9 and from FRET-based kinetics measurements reported here, we know that globomycin binds with high affinity (Supplementary Fig. 6). Tight binding means that a more in-depth analysis must be carried out in order to identify inhibition type. For such analysis, it is important to know active enzyme concentration accurately. Fortunately, it was possible to use the property of tight inhibitor binding to measure the concentration of active enzyme ( Supplementary Fig. 18a). In the case of LspPae, the estimated value and the concentration determined spectroscopically agreed remarkably well. Parenthetically we note that knowing active LspPae concentration accurately enabled a characterization of the myxovirescin sample used in this study. Myxovirescin also binds tightly to LspA (Supplementary Fig. 6). […]

[1] = Suppl. Fig. 18a, [Globomycin] 0.02 M
[2] = Suppl. Fig. 18a, [Globomycin] 0.08 M
[3] = Suppl. Fig. 18a, [Globomycin] 0.1 M
[4] = Suppl. Fig. 18a, [Globomycin] 0.12 M
[5] = Suppl. Fig. 18a, [Globomycin] 0.15 M
[6] = Suppl. Fig. 18a, [Globomycin] 0.25 M

Structure (SMILES): CCCCCC[C@H]1OC(=O)CNC(=O)[C@H]([C@H](C)O)NC(=O)[C@H](CO)NC(=O)[C@H]([C@H](C)CC)NC(=O)[C@H](CC(C)C)N(C)C(=O)[C@@H]1C [globomycin]
- inhibitor on-rates (5-fold molar excess of antibiotic added 20 to 30 min after start of reaction): fast
- Fluorescence (RFU) (time 26.5 min): 472.821 RFU
- Fluorescence (RFU) (time 27 min): 466.895 RFU
- Fluorescence (RFU) (time 27.5 min): 470.521 RFU
- Fluorescence (RFU) (time 28 min): 460.426 RFU
- Fluorescence (RFU) (time 28.5 min): 463.196 RFU
- Fluorescence (RFU) (time 29 min): 462.392 RFU
- Fluorescence (RFU) (time 29.5 min): 469.501 RFU
- Fluorescence (RFU) (time 30 min): 460.374 RFU
- Fluorescence (RFU) (time 30.5 min): 459.928 RFU
- Fluorescence (RFU) (time 31 min): 456.673 RFU
- Fluorescence (RFU) (time 31.5 min): 461.288 RFU
- Fluorescence (RFU) (time 32 min): 457.637 RFU
- Fluorescence (RFU) (time 32.5 min): 459.756 RFU
- Fluorescence (RFU) (time 33 min): 461.040 RFU
- Fluorescence (RFU) (time 33.5 min): 455.548 RFU
- Fluorescence (RFU) (time 34 min): 459.251 RFU
- Fluorescence (RFU) (time 34.5 min): 461.912 RFU
- Fluorescence (RFU) (time 35 min): 462.029 RFU
- Fluorescence (RFU) (time 35.5 min): 459.871 RFU
- Fluorescence (RFU) (time 36 min): 456.705 RFU
- Fluorescence (RFU) (time 36.5 min): 457.128 RFU
- Fluorescence (RFU) (time 37 min): 457.399 RFU
- Fluorescence (RFU) (time 37.5 min): 460.693 RFU
- Fluorescence (RFU) (time 38 min): 454.401 RFU
- Fluorescence (RFU) (time 38.5 min): 457.430 RFU
- Fluorescence (RFU) (time 39 min): 456.060 RFU
- Fluorescence (RFU) (time 39.5 min): 454.659 RFU
- Fluorescence (RFU) (time 40 min): 457.707 RFU
- Fluorescence (RFU) (time 40.5 min): 450.482 RFU
- Fluorescence (RFU) (time 41 min): 454.135 RFU
- Fluorescence (RFU) (time 41.5 min): 449.262 RFU
- Fluorescence (RFU) (time 42 min): 454.556 RFU
- Fluorescence (RFU) (time 42.5 min): 450.049 RFU
- Fluorescence (RFU) (time 43 min): 449.698 RFU
- Fluorescence (RFU) (time 43.5 min): 456.047 RFU
- Fluorescence (RFU) (time 44 min): 454.046 RFU
- Fluorescence (RFU) (time 44.5 min): 452.003 RFU
- Fluorescence (RFU) (time 45 min): 447.269 RFU
- Fluorescence (RFU) (time 45.5 min): 454.250 RFU
- Fluorescence (RFU) (time 46 min): 454.835 RFU
- Fluorescence (RFU) (time 46.5 min): 452.245 RFU
- Fluorescence (RFU) (time 47 min): 453.938 RFU
- Fluorescence (RFU) (time 47.5 min): 452.432 RFU
- Fluorescence (RFU) (time 48 min): 453.748 RFU
- Fluorescence (RFU) (time 48.5 min): 446.264 RFU
- Fluorescence (RFU) (time 49 min): 454.134 RFU
- Fluorescence (RFU) (time 49.5 min): 458.300 RFU
- Fluorescence (RFU) (time 50 min): 453.740 RFU
- Fluorescence (RFU) (time 50.5 min): 458.019 RFU
- Fluorescence (RFU) (time 51 min): 452.119 RFU
- IC50 (IC50, 20 nM LspPae, substrate 2.5 µM): 5.32 nM and 7.73 nM
- IC50 (IC50, 20 nM LspPae, substrate 5 µM): 6.43 nM and 11.1 nM
- IC50 (IC50, 20 nM LspPae, substrate 7.5 µM): 6.63 nM and 10.1 nM
- IC50 (IC50, 20 nM LspPae, substrate 10 µM): 7.18 nM and 9.58 nM
- IC50 (IC50, 20 nM LspPae, substrate 20 µM): 5.81 nM and 8.79 nM
- IC50 (IC50, 20 nM LspPae, substrate 30 µM): 5.73 nM and 9.79 nM
- IC50 (IC50, FRET, 0.1 µM enzyme, 30 µM substrate, initial rates): 57 nM
- IC50 (IC50, LspPae concentration 10 nM): 5.5 nM and 7.7 nM
- IC50 (IC50, LspPae concentration 20 nM): 10.6 nM and 17.6 nM
- IC50 (IC50, LspPae concentration 40 nM): 22.6 nM and 26.4 nM
- IC50 (IC50, LspPae concentration 60 nM): 27.8 nM and 39 nM
- IC50 (IC50, LspPae concentration 80 nM): 37.9 nM and 55.3 nM
- IC50 (IC50, LspPae concentration 100 nM): 52.6 nM and 61.3 nM
- Rate (RFU/min) (LspPae + Globomycin, log [globomycin] (µM) -0.60): 0.6 RFU/min and 0.7 RFU/min
- Rate (RFU/min) (LspPae + Globomycin, log [globomycin] (µM) -0.82): 0.856 RFU/min and 1.1 RFU/min
- Rate (RFU/min) (LspPae + Globomycin, log [globomycin] (µM) -0.92): 0.9 RFU/min and 0.95 RFU/min
- Rate (RFU/min) (LspPae + Globomycin, log [globomycin] (µM) -1.00): 4.1 RFU/min and 3.2 RFU/min
- Rate (RFU/min) (LspPae + Globomycin, log [globomycin] (µM) -1.10): 12.3 RFU/min and 11.9 RFU/min
- Rate (RFU/min) (LspPae + Globomycin, log [globomycin] (µM) -1.30): 31.7 RFU/min and 30.1 RFU/min
- Rate (RFU/min) (LspPae + Globomycin, log [globomycin] (µM) -1.70): 42.7 RFU/min
- Normalised rate (Vi/V0) [1]: 0.8723 and 0.8656
- Rate (RFU/min) [1]: 40.92 RFU/min and 41.48 RFU/min
- Normalised rate (Vi/V0) (Suppl. Fig. 18a, [Globomycin] 0.05 M): 0.6284 and 0.6375
- Normalised rate (Vi/V0) [2]: 0.2526 and 0.2533
- Rate (RFU/min) [2]: 11.85 RFU/min and 12.14 RFU/min
- Normalised rate (Vi/V0) [3]: 0.07205 and 0.07513
- Rate (RFU/min) [3]: 3.38 RFU/min and 3.6 RFU/min
- Normalised rate (Vi/V0) [4]: 0.01684 and 0.01523
- Rate (RFU/min) [4]: 0.79 RFU/min and 0.73 RFU/min
- Normalised rate (Vi/V0) [5]: 0.0162 and 0.00793
- Rate (RFU/min) [5]: 0.76 RFU/min and 0.38 RFU/min
- Normalised rate (Vi/V0) [6]: 0.02132 and 0.008139
- Rate (RFU/min) [6]: 1 RFU/min and 0.39 RFU/min
- Rate (RFU/min) (Suppl. Fig. 18a): 29.48 RFU/min and 30.55 RFU/min
- IC50 (average IC50, 20 nM LspPae, substrate 2.5 or 5 to 30 µM): ~10 nM
- Ki (Morrison analysis, 30 µM substrate, 0.1 µM LspPae): 0.74 ± 0.41 nM
- Ki (from dependence of IC50 on enzyme concentration, IC50 = Ki’ + [E]/2): 1.96 ± 3 nM
